Experiment: Drug release experiments (phosphate buffer pH 7, 37° C.)
Assay type: physicochemical
Procedure: Furthermore drug release tests were carried out with biodegradable matrix polymers. The above mentioned polyester methacrylate networks were loaded with 5% gentamicin and enoxazin, respectively. Samples having a size of 1×2 cm^2 were cut open and placed into a medium for release (4 ml phosphate buffer, pH 7). The pieces of the films were placed in tubes for a centrifuge, in a manner allowing the buffer solution to contact the films from all sides. The centrifuge tubes were placed into a shaking water bath at 37° C. and at predetermined intervals the medium for release was exchanged completely in order to determine the amount of the drug released. […] Samples are placed into polypropylene centrifuge vessels (which may be closed) of a volume of 15 ml and placed into contact with 4 ml of the releasing medium. […] The release experiment is carried out in a temperature controlled shaking water bath at 37° C. with 60 revolutions per minute. The temperature is controlled with an accuracy of ±0.1 K. […] The experiment is concluded when all of the drug has been released. The establishment of the release profile occurs by means of determination of the released drug by UV-Vis-spectroscopy. The resulting release profiles represent the arithmetical average from parallel experiments regarding the release from three samples of one material. If the experiment is terminated prior to the complete release of the drug from the matrix, a determination of the drug remaining in the polymer network becomes necessary. […] Using 5 ml chloroform the networks are swollen, and destroyed mechanically using a glass rod. Using additional 5 ml chloroform the swollen enoxacin containing fragments are extracted. With […] containing networks extraction is carried out using 5 ml 2-propanol. […] The content of drug remaining in the matrix is added to the content as determined with the release experiment.

[1] = from amorphous matrix N-LG(18)-10 (FIG. 4)
[2] = matrix based on paradioxanone and caprolactone, unmodified

For `CCOc1ccc2nc3cc(N)ccc3c(N)c2c1` [ethacridine lactate], the drug release profile [1] was “released more rapidly” and the drug release profile (networks on the basis of polylactide-co-glycolide, segment Mn about 10000, 15 wt.-% glycolide content) was “substantially linear release, with a slightly accelerated release at the beginning”.

In the case of `O=C1CN(/N=C/c2ccc([N+](=O)[O-])o2)C(=O)N1` [nitrofurantoine], the drug release profile [1] is reported as “step profile”.

For gentamicin, the “drug release profile at the beginning of the release” value [2] was “rapid release (burst-effect)” and the “time until plateau of release is reached” value [2] was “within two days”.
